Laboratory results published in patent publication US9334256B2, “Agents and methods for treating ischemic and other diseases” (NoNO INC., priority 2011, dated 2016).

Target: T1, TRPM7 (Mus musculus, UniProt Q923J1)
T1 construct: expressed in transfected cells; host or cells: HEK-293 tSA (HEK-293T) cells, transient transfection with Lipofectamine 2000
Experiment: PI uptake cell death assay in TRPM7-expressing HEK-293 cells (type of assay from Example 1)
Assay type: cell-based, murine
Description: The TRPM7 channel provides a pathway for mono- and divalent cations into the cell, and is unique in that it contains a functional C-terminal α-kinase domain. […] The induction of chemical anoxia in host cells such as recombinant HEK293 cells can be used to activate TRPM7. This activation is detectable with the use measurements of cellular calcium accumulation. This is achievable with the use of a fluorescent calcium indicator. Alternatively, this activation can also be measured using radiolabelled Ca2+ (^45Ca^2+) as described previously by Sattler et al. (Sattler et al., 1998) and Aarts et al. (Aarts et al., 2003).
Hoechst 33342 was purchased as a 10 mg/mL solution in water (Molecular Probes Inc., Eugene, Oreg.). Propidium iodide (PI) was purchased as a powder and prepared by dissolving in PBS at 1 mg/mL. PI solutions were stored at 4° C. until use. Hoechst and PI were added directly to cell culture to 5 μg/mL and 10 μg/mL respectively. Cells were incubated at room temperature or at 37° C. for 10 minutes to allow for adequate uptake, and fluorescence observed using a NIKON Eclipse TE2000 inverted microscope and TE-FM Epi-Fluorescence attachment (Nikon Canada).
Untransfected cells or cells transfected with the TRPM7/pTracer or ΔPDZ/pTracer construct were plated onto 24-well plates, 24-hours post-transfection. Untransfected cells were plated at 0.75×10^6 cells/well and transfected cells at 1×10^6 cells/well. The plates were coated with poly-D-lysine to strengthen cell adhesion and to minimize cell loss during washes. Cells were loaded by incubation with 5 μM fluo-3 AM and 0.02% pluronic in HBSS at 37° C. for 30 minutes. Following loading, cells were washed with an aglycaemic HBSS containing, in mM: 20 N-methyl-D-glucamine (NMDG), 121 NaCl, 5 KCl, 10 HEPES acid, 10 HEPES-Na salt, 3 NaHCO3, 1 Na-pyruvate, and 1.8 CaCl2, pH adjusted to 7.4 with HCl. Calcium uptake, as assessed by fluo-3 fluorescence, was measured in response to 0, 5, 10, 15, 20, or 25 mM sodium cyanide (NaCN; Mallinckrodt Baker Inc., Phillipsburg, N.J.) dissolved in aglycaemic HBSS. A 250 mM NaCN stock was prepared in water and stored at room temperature for up to 2 weeks. Measurements of fluo-3 fluorescence were taken over a 2 hour period at 10 minutes intervals at room temperature (22-25° C.). Calcium uptake assays were performed 48 hours post-transfection.
Cell death, as assessed by PI uptake, was examined at the end of the 2 hour calcium uptake assay. Cells were stained with 10 μg/mL PI and PI fluorescence measured using the Fluoroskan microplate reader (λ excitation=590 nm, λ emission=630 nm) and accompanying Ascent software (Thermo Electron Corp.). To obtain a reading of maximal fluorescence (Fmax), 0.5% Triton X-100 was added to each well and allowed to incubate for 20 minutes. Cell death assays were performed 48 hours post-transfection.
Data was entered into Excel (Microsoft, Seattle, Wash.) or SigmaPlot (SPSS Inc., Chicago, Ill.) for analysis. Pooled data are presented as the mean of at least 3 separate experiments±sem. Calcium uptake is expressed as a fraction of baseline uptake: ΔFt=(Ft−Fo)/Fo where Ft is the fluorescence at time t, and Fo is the fluorescence at baseline. Cell death is expressed as a percentage of total cell death: cell death (%)=Ft/Fmax×100 where Ft is the fluorescence at time t and Fmax is the maximal fluorescence obtained by permeabilization with Triton X-100. Concentration-response curves were fit by nonlinear regression with a 4 parameter logistic curve represented by the following equation: y=min+{(max−min)/[1+(x/EC50)n]} where y is the response at concentration x, min is the minimal response, max is the maximal response, EC50 is the concentration required for half-maximal response, and n is the Hill slope. Statistical analysis of data was carried out with a two-tailed Student's t test, or a one-way analysis of variance (ANOVA) followed by post hoc pairwise multiple comparisons testing using the Holm-Sidak method, where appropriate. […]

[1] = Table X, the lower the number, the more potent in protecting against cell death
[2] = Table X, the lower the number, the more potent
[3] = Table Y, commercially available compounds

T1 sequence (Q923J1 whole entry): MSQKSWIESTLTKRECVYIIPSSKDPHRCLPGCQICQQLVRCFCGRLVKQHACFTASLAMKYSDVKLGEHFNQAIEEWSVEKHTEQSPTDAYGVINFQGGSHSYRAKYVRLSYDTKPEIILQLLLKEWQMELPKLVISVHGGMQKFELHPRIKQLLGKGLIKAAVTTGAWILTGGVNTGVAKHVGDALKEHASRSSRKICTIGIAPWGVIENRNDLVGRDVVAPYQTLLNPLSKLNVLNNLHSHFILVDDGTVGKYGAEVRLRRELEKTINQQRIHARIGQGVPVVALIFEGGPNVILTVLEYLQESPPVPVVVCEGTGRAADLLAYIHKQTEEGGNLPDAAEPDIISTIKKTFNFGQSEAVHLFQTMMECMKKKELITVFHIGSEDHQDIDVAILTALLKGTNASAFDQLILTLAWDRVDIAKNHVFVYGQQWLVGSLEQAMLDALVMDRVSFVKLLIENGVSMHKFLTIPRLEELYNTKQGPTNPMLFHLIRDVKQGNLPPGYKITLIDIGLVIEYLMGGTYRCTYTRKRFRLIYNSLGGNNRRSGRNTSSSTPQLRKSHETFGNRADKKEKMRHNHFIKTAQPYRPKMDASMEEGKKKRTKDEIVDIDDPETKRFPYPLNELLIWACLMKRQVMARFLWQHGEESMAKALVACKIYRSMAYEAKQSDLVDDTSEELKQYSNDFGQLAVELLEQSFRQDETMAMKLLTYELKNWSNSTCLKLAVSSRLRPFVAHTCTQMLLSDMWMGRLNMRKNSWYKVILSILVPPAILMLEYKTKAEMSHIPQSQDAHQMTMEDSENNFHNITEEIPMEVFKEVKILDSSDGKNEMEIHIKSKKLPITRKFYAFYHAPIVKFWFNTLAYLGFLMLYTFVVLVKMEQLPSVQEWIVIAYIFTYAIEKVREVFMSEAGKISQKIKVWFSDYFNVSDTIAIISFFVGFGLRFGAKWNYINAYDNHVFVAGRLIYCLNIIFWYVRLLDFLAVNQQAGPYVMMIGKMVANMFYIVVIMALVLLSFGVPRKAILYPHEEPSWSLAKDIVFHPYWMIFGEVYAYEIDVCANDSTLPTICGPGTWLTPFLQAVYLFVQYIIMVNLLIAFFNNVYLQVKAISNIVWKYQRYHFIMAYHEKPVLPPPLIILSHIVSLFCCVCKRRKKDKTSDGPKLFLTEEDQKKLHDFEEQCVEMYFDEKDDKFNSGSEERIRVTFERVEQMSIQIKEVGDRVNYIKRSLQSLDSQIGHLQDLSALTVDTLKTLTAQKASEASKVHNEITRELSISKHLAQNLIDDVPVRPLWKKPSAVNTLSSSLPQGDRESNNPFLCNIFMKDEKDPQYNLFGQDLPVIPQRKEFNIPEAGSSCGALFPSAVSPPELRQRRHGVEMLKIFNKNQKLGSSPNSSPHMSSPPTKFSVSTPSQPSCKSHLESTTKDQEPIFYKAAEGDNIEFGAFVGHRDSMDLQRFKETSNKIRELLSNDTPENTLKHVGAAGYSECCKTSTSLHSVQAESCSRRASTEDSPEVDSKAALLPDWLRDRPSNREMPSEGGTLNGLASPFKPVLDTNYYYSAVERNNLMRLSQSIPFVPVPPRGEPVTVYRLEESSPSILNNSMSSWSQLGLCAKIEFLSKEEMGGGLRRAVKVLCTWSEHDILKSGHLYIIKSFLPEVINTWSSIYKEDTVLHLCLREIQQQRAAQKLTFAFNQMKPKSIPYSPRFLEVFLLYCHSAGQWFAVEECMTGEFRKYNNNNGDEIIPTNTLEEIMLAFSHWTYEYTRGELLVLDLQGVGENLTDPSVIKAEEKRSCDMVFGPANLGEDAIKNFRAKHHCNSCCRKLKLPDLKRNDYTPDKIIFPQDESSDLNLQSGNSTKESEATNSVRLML

Compound	Normalized ratio of PI uptake (5 μM) [1]	Normalized ratio of PI uptake (10 μM) [2]	IC50 (Table X) [µM]	Normalized ratio of PI uptake (5 μM) [3]	Normalized ratio of PI uptake (10 μM) [3]	IC50 [3] [µM]
CCCc1c(Cc2ccc(Cl)c(Cl)c2)c(=O)[nH]c2cc(OC)cc(OC)c12 [Compound 132]	0.73	0.1	4.46	–	–	–
COc1cc(OC)c2c(C)c(Cc3ccc(F)cc3)c(=O)[nH]c2c1 [Compound 138]	0.034	0.026	0.47	–	–	–
Cc1c(Cc2ccc(F)cc2)c(=O)oc2cc(O)ccc12 [RJF01910SC #10, reference compound]	–	–	–	0.465	0.261	4.15
COc1ccc(C)c(N(CC(=O)c2cccs2)C(=O)c2sc3ccccc3c2Cl)c1 [Compound 103]	0.444	0.312	0.81	–	–	–
Cc1ccc2c(c1)CCCN2C(=O)c1sc2cc(F)ccc2c1Cl [Compound 7]	0.274	0.067	4.05	–	–	–
Cc1c(Cc2c(F)cccc2Cl)c(=O)[nH]c2cc(O)cc(O)c12 [Compound 133]	0.367	0.123	3.31	–	–	–
COc1ccc(-c2n[nH]cc2CN(C)Cc2cc3ccccc3s2)cc1F [Ambcb42783454 #13, reference compound]	–	–	–	0.498	0.266	4.7
CCCc1c(Cc2c(F)cccc2Cl)c(=O)oc2cc(O)ccc12 [RJF01538SC #14, reference compound]	–	–	–	0.16	0.057	2.78
COc1cccc2c1CCN=C2c1sc2ccccc2c1Cl [Compound 110]	0.037	0.06	1.38	–	–	–
Cc1ccc2c(c1)CCNC2c1sc2ccccc2c1Cl (centres unmarked) [Compound 54]	0.024	0.029	1.5	–	–	–
Cc1ccc(N(Cc2ccncc2)C(=O)c2sc3ccccc3c2Cl)c(C)c1 [Compound 98]	0.36	0.067	2.53	–	–	–
O=S(=O)(Nc1sc2ccccc2c1Cl)c1ccc(F)cc1 [Compound 64]	0.154	0.080	2.87	–	–	–
COc1cc2c(cc1OC)C(c1sc3cccc(C)c3c1Cl)NCC2 (centres unmarked) [Compound 73]	0.000	0.000	0.18	–	–	–
COc1ccc2sc(C3=NCCc4cc(OC)c(OC)cc43)c(Cl)c2c1 [Compound 70]	0.035	0.013	0.47	–	–	–
Cc1ccc(N(Cc2ccccn2)C(=O)c2sc3ccccc3c2Cl)c(C)c1 [Compound 57]	0.110	0.039	1.71	–	–	–
COc1ccc2c(Cl)c(C3NCCc4cc(OC)c(OC)cc43)sc2c1 (centres unmarked) [Compound 71]	0.005	0.003	0.42	–	–	–
COc1cc(OC)c2c(C)c(Cc3ccc(Cl)cc3)c(=O)[nH]c2c1 [Compound 93]	0.071	0.041	0.21	–	–	–
CCCc1c(Cc2cccc(Cl)c2)c(=O)[nH]c2cc(O)cc(O)c12 [Compound 134]	0.564	0.305	–	–	–	–
Cc1cccc2sc(C3=NCCc4ccc(Cl)cc43)c(Cl)c12 [Compound 116]	0.788	0.358	4.75	–	–	–
O=C(NC1CCOc2ccccc21)c1cc2ccccc2[nH]1 (centres unmarked) [T6749380 #12, reference compound]	–	–	–	0.043	0.029	2.8
Cc1c(Cc2ccccc2)c(=O)oc2cc(O)cc(O)c12 [STOCK1N- 70089 #1, reference compound]	–	–	–	0.181	0.005	3.16
CC1c2ccsc2CCN1C(=O)c1[nH]c2ccccc2c1Cl (centres unmarked) [T6899791 #8, reference compound]	–	–	–	0	0	0.7
Fc1ccc2c(c1)CCN=C2c1sc2ccccc2c1Cl [Compound 42]	0.304	0.010	3.99	–	–	–
COc1cc(OC)c2c(C)c(Cc3ccc(Cl)c(Cl)c3)c(=O)[nH]c2c1 [Compound 130]	0.1	0.06	0.93	–	–	–
COc1cc(OC)c2c(C)c(Cc3ccccc3)c(=O)[nH]c2c1 [Compound 56]	0.255	0.240	0.43	–	–	–
COc1ccc(C)c(N(Cc2ccc3ccccc3n2)C(=O)c2sc3ccccc3c2Cl)c1 [Compound 105]	0.07	0.17	0.86	–	–	–
Cc1ccc2c(c1)CCCN2C(=O)c1sc2ccccc2c1F [Compound 45]	0.399	0.072	4.66	–	–	–
